The values below are quoted from earlier work in patent publication US20100047273A1, “Coxsackie B virus and type 1 diabetes” (priority 2007, published 2010).

For this series, the system named is coxsackie B4 virus. To be noted: reported in references 4 and 5.

Regarding `Cc1cc(CCCOc2c(C)cc(-c3noc(C(F)(F)F)n3)cc2C)on1` [pleconaril], the “activity against coxsackie B4 virus” value is listed as “active”.
